What was measured:
[1] = 25° C./75% relative humidity
CGRP [2] = conditions: clinical trials, Olesen et al. 2004; cited from earlier work
CGRP [3] = conditions: control group, Petersen et al. 2005; cited from earlier work

Row | Compound | Water content [1] [%] | efficacy in treating acute attacks of migraine (CGRP [2]) | prevention of headache induced by CGRP infusion (CGRP [3])
1 | O=C(N[C@@H]1CC[C@@H](c2cccc(F)c2F)CN(CC(F)(F)F)C1=O)N1CCC(n2c(=O)[nH]c3ncccc32)CC1 [spray-dried amorphous form] | 18 |  | 
2 | BIBN4096BS |  | effective in treating acute attacks of migraine | able to prevent headache induced by CGRP infusion
